Source: patent publication US9096615B2, “Bridged bicyclic amino thiazine dioxide compounds as inhibitors of beta-secretase and methods of use thereof” (AMGEN INC., priority 2013, dated 2015)
Like-named read-outs stand apart in the source and are kept apart here.

Experiments:
[1] = molecular target: BACE1 (Homo sapiens, UniProt P56817); assay: In vitro enzymatic BACE FRET assay; assay type: biochemical; conditions: average IC50; read-out: BACE1 Enzyme assay IC50
Outline: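 Fluorescence (excitation 488 nm, […]) from cleavage of quenched peptide substrate (50 nM), reaction run 1 h after 1 h enzyme–inhibitor pre-incubation, then neutralised with Tris. Conditions: 0.2 nM enzyme, pH 4.2 acetate 0.05 M, 10% DMSO final, 100 uM genapol.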

[2] = tested on: Abeta 40; assay: In vivo inhibition of beta-secretase: percent Abeta 40 reduction in CSF and brain; parameters: species or system rat; conditions: after 4 hrs; for inhibition in vivo at 10 mg/kg: 10 mpk
Outline: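 Test compound was given by oral gavage in 2% HPMC, 1% Tween80, pH 2.2 (e.g., 30 mg/kg to male Sprague Dawley rats), or IV in 5% EtOH/45% propylene glycol in 5% dextrose. Four hours later, Abeta40 in CSF and in brain homogenate (DEA or Triton extraction) was measured by ECL sandwich ELISA (4G8 capture, Fab40 detection). Reduction is expressed relative to vehicle-treated animals.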

[3] = molecular target: T1, Cathepsin D (Cat D) (Homo sapiens, UniProt P07339); assay: In vitro enzymatic Cathepsin D (Cat D) FRET assay; assay type: biochemical; conditions: average IC50; first procedure; read-out: CatD IC50
T1 construct: made in house; host or cells: CHO cells
Outline: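 Fluorescence (500 nm excitation, 580 nm emission) was measured after Tris quench of a 1 h cleavage of 20 nM quenched peptide substrate. Before that, 9 nM CHO-expressed human Cat D sat with compound for 1 h at pH 3.5 (0.05 M citrate, 5 mM CHAPS, 10% DMSO final).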

[4] = Abeta 40, rat CSF, read-out: % reduction of rat CSF levels at 10 pmk
[5] = Abeta 40, rat brain, read-out: % reduction of rat brain levels at 10 mpk

Chain of BACE1 (P56817 46-501, species assumed): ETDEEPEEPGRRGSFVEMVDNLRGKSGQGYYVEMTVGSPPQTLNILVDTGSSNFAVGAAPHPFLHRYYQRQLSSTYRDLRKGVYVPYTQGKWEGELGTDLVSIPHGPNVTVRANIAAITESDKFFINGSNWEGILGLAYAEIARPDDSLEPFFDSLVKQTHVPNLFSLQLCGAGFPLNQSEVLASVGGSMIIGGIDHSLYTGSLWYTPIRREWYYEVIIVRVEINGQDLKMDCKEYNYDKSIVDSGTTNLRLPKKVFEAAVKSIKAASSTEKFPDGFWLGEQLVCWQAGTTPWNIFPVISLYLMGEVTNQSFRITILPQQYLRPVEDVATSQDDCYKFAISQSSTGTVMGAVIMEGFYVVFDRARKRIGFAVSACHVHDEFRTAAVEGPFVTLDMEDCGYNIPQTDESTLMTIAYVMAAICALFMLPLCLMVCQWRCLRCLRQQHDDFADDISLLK
T1 sequence (P07339 65-412, species assumed): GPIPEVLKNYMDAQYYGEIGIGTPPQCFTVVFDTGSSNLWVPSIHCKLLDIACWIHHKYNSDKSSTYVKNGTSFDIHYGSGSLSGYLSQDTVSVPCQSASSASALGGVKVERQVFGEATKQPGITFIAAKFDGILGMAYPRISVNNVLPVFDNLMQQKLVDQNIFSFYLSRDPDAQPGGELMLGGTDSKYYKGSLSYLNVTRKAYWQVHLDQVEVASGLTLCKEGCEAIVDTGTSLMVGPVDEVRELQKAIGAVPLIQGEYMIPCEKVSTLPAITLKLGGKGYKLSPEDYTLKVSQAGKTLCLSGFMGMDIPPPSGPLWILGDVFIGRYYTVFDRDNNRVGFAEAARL

| IC50 [1] | IC50 [3] | SMILES | inhibition in vivo at 10 mg/kg [2, 4] | inhibition in vivo at 10 mg/kg [2, 5] | % reduction of rat CSF levels (3 mpk) ([2]; Abeta 40, rat CSF, 3 mpk) | % reduction of rat brain levels (3 mpk) ([2]; Abeta 40, rat brain, 3 mpk) |
| --- | --- | --- | --- | --- | --- | --- |
| 0.001 µM | 855 µM | C[C@]1(c2cc(Nc3nccc4nc(OCc5ncco5)cnc34)ccc2F)N=C(N)[C@@]2(C)CC[C@@H]1S2(=O)=O [Example 140, N-(3-((1S,2R,5R)-4-amino-2,5-dimethyl-8,8-dioxido-8-thia-3-azabicyclo[3.2.1]oct-3-en-2-yl)-4-fluorophenyl)-2-(1,3-oxazol-2-ylmethoxy)pyrido[3,4-b]pyrazin-5-amine] | 41% | 39% | – | – |
| 0.0188 µM | > 400 µM | COc1cnc2c(Nc3ccc(F)c([C@@]4(C)N=C(N)[C@@]5(CF)CC[C@@H]4S5(=O)=O)c3)nccc2c1 [Example 56, N-(3-((1S,2R,5R)-4-amino-5-(fluoromethyl)-2-methyl-8,8-dioxido-8-thia-3-azabicyclo[3.2.1]oct-3-en-2-yl)-4-fluorophenyl)-3-methoxy-1,7-naphthyridin-8-amine] | 69% | – | – | – |
| 0.013 µM | 757 µM | COc1cnc(C(=O)Nc2ccc(F)c([C@@]3(C)N=C(N)[C@@]4(CF)CC[C@@H]3S4(=O)=O)c2)c(C)c1 [Example 42, N-(3-((1S,2R,5R)-4-amino-5-(fluoromethyl)-2-methyl-8,8-dioxido-8-thia-3-azabicyclo[3.2.1]oct-3-en-2-yl)-4-fluorophenyl)-5-methoxy-3-methyl-2-pyridinecarboxamide] | – | – | 21 (3 mpk) % | 0 (3 mpk) % |
| 0.003 µM | 685 µM | Cc1cc(Cl)cnc1C(=O)Nc1ccc(F)c([C@@]2(C)N=C(N)[C@@]3(CF)CC[C@@H]2S3(=O)=O)c1 [Example 88, N-(3-((1S,2R,5R)-4-amino-5-(fluoromethyl)-2-methyl-8,8-dioxido-8-thia-3-azabicyclo[3.2.1]oct-3-en-2-yl)-4-fluorophenyl)-5-chloro-3-methyl-2-pyridinecarboxamide] | 77% | 70% | – | – |
| 0.01 µM | 1060 µM | COc1cnc(C(=O)Nc2ccc(F)c([C@@]3(C)N=C(N)[C@@]4(CF)CC[C@@H]3S4(=O)=O)c2)c(C)n1 [Example 76, N-(3-((1S,2R,5R)-4-amino-5-(fluoromethyl)-2-methyl-8,8-dioxido-8-thia-3-azabicyclo[3.2.1]oct-3-en-2-yl)-4-fluorophenyl)-5-methoxy-3-methyl-2-pyrazinecarboxamide] | 76% | 66% | – | – |
| 0.002 µM | 799 µM | C[C@]1(c2cc(Nc3nccc4nc(OCc5ncco5)cnc34)ccc2F)N=C(N)[C@@]2(CF)CC[C@@H]1S2(=O)=O [Example 104, N-(3-((1S,2R,5R)-4-amino-5-(fluoromethyl)-2-methyl-8,8-dioxido-8-thia-3-azabicyclo[3.2.1]oct-3-en-2-yl)-4-fluorophenyl)-2-(1,3-oxazol-2-ylmethoxy)pyrido[3,4-b]pyrazin-5-amine] | 74% | 71% | – | – |
| 0.005 µM | 2500 µM | COc1cnc(C(=O)Nc2ccc(F)c([C@@]3(C)N=C(N)[C@@]4(C)CC[C@@H]3S4(=O)=O)c2)cn1 [Example 61, N-(3-((1S,2R,5R)-4-amino-2,5-dimethyl-8,8-dioxido-8-thia-3-azabicyclo[3.2.1]oct-3-en-2-yl)-4-fluorophenyl)-5-methoxy-2-pyrazinecarboxamide] | 80% | 79% | – | – |
